Columns and labels:
[1] = target: T1, human GST-DYRK1A (Homo sapiens, UniProt Q13627); test: GST-DYRK1A enzyme inhibition, ADP-Glo kinase assay; assay type: biochemical; details: ATP 10 μM, GST-DYRK1A full length, read-out: DYRK1 IC50
T1 construct: purified human GST-DYRK1A (full length, Thermo Scientifics) enzyme; purchased Thermo Scientifics
Outline: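 Full-length human GST-DYRK1A (10 ng) with 10 μM ATP and specific substrate in 40 mM Tris-HCl pH 7.4, 20 mM MgCl2, 0.5 mg/mL BSA, 50 μM DTT, 1 h at 25 °C. ADP formation read by ADP-Glo luminescence relative to solvent control; IC50 from three data sets.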

[2] = target: T2, human GST-CLK1 (Homo sapiens, UniProt P49759); test: GST-CLK1 enzyme inhibition, ADP-Glo kinase assay; assay type: biochemical; details: ATP 10 μM, GST-CLK1 129-end
T2 construct: purified human GST-CLK1 (129-end, SignalChem) enzyme; purchased SignalChem
T2 sequence (P49759 129-484 limits assumed): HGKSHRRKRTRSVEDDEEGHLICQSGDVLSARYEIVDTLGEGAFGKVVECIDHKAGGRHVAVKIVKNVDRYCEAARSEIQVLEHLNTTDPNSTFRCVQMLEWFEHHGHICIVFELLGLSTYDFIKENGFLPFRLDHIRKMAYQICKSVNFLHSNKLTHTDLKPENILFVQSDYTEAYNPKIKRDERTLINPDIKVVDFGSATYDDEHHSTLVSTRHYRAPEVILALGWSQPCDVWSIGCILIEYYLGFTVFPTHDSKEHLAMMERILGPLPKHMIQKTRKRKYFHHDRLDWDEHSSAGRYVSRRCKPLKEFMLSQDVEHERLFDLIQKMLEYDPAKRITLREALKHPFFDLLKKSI
Outline: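 Human GST-CLK1 (129-end, 3 ng) reacted with substrate and 10 μM ATP for 1 h at 25° C in 40 mM Tris-HCl pH 7.4, 20 mM MgCl2, 0.5 mg/mL BSA, 50 μM DTT. ADP-Glo luminescence was normalised to solvent control; IC50 (nM) from 3 data sets.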

[3] = test system: IL-6; test: Inhibition of LPS-induced IL-6 secretion of THP-1 monocytes (ELISA); assay type: cell-based, human; details: Homo sapiens, THP-1; compound 0.5 μM, LPS 500 ng/mL, 24 hours; read-out: THP1/IL6 (% inhib)
Procedure: (§1) To evaluate an inhibitory effect on cytokine secretion of monocytes, THP-1 cells (ATCC, #TIB-202) as a human-derived monocyte line were cultured in an RPMI-1640 (Hyclone, SH30027.01) medium supplemented with 10% fetal bovine serum (Hyclone, SH30084.03), 1% penicillin streptomycin (Welgene, LS202-02), and 50 μM 2-mercaptoethanol (Gibco, #21985023). In the test, the cells were seeded in a 48-well plate (SPL, #30048) at a density of 1.5 to 2×10^5 cells/250 μL per well, and cultured at 37° C. for 16 hours in a 5% CO2 incubator. Thereafter, the compound was diluted with DMSO so that the final concentration of the compound was 0.5 μM. Then, the cells were treated with the diluted compound before an hour of treatment with lipopolysaccharides (LPS) (Sigma, #L6529). After the treatment with the compound, the cells were treated with LPS so that the final concentration was 500 ng/mL. Then, a cell culture broth was collected after 24 hours of culture, and levels of cytokine IL-6 (R&D Systems, #D6050) and TNF-α (R&D Systems, #DTA00D) comprised in the culture broth were measured using respective ELISA kits. After an experiment was performed according to the manufacturer's guidelines, cell analysis was performed by measuring the optical density at 450 nm using a microplate reader.

[4] = test system: TNF-α; test: Inhibition of LPS-induced TNF-α secretion of THP-1 monocytes (ELISA); assay type: cell-based, human; details: Homo sapiens, THP-1; compound 0.5 μM, LPS 500 ng/mL, 24 hours; read-out: THP-1/TNF-α (% inhib)
Procedure: as §1

[5] = target: LRRK2 (Homo sapiens, UniProt Q5S007); test: LRRK2 enzyme inhibition, ADP-Glo kinase assay; assay type: biochemical; parameters: purchased Invitrogen PR8604B; details: ATP 10 μM
Sequence of LRRK2 (Q5S007 970-2527 limits assumed): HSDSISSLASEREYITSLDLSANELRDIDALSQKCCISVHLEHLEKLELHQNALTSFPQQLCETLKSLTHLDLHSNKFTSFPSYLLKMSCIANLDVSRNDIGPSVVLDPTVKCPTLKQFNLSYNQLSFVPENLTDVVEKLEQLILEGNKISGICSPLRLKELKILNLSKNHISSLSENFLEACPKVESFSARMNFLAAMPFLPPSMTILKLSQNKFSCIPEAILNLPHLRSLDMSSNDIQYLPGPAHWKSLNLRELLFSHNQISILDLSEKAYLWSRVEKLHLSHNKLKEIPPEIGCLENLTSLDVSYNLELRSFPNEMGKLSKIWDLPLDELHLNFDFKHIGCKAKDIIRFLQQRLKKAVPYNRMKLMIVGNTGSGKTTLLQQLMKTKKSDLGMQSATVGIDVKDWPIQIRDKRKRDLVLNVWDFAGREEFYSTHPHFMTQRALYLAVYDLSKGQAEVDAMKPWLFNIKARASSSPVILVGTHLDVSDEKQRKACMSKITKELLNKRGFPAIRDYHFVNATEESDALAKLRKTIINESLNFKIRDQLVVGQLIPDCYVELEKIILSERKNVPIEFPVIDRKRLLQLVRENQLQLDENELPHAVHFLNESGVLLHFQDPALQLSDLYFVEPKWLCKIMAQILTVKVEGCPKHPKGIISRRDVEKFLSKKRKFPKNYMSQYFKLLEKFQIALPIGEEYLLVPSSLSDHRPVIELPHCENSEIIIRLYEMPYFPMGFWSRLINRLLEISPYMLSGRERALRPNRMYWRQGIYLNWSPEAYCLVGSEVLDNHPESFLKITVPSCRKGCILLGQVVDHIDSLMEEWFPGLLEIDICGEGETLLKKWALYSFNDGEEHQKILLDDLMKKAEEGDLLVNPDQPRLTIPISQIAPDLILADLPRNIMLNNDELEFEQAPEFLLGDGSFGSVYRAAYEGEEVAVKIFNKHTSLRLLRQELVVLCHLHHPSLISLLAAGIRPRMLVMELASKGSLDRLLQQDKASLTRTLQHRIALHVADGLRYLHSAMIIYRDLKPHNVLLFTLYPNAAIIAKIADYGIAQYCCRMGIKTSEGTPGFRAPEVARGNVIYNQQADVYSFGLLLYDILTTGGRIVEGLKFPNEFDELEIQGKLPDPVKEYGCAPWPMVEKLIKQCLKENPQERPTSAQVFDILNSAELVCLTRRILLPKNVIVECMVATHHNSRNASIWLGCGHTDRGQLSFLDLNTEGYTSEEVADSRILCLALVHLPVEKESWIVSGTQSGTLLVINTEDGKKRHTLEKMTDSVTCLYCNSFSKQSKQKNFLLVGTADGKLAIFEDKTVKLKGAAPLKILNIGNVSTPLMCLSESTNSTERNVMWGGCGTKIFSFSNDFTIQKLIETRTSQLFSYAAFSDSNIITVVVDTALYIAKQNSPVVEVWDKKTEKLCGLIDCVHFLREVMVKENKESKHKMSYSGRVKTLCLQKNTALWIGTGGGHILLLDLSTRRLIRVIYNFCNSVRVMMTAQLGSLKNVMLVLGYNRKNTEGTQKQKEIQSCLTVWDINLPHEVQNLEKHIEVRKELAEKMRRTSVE
Outline: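 Purified human LRRK2 (25 ng) with 10 μM ATP and 0.2 μg substrate in 40 mM Tris-HCl pH 7.4, 20 mM MgCl2, 0.5 mg/mL BSA, 50 μM DTT, 2 h at 25° C. ADP-Glo luminescence; 12-point compound series from 50 μM final; IC50 relative to solvent control.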

[6] = target: LRRK2 (G2019S) (Homo sapiens, UniProt Q5S007, G2019S); test: LRRK2 G2019S enzyme inhibition, ADP-Glo kinase assay; assay type: biochemical; parameters: purchased SignalChem L10-12GG; details: ATP 25 μM
Sequence of LRRK2 (G2019S) (Q5S007 970-2527 G2019S limits assumed): as the sequence (Q5S007 970-2527 limits assumed) above, with G1050S counted along it
Outline: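 Purified human LRRK2 G2019S (16 ng) with 25 μM ATP and 0.2 μg substrate, 2 h at 25° C. in Tris-HCl pH 7.4, MgCl2, BSA, DTT buffer; compounds at 12 final concentrations, 50 μM down to 0.000001024 μM. ADP-Glo luminescence versus solvent control gave IC50.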

[7] = test system: human DYRK1A and tau; test: Inhibition of tau phosphorylation, ClariCELL Kinase Cell-Based Assay, HEK 293 cells expressing human DYRK1A and tau; details: for inhibition at 1 µM: HEK293, read-out: % inhibition at 1 uM, tau phosphorylation, compound 1 uM; for inhibition at 0.25 µM / inhibition at 0.5 µM: HEK293, tau phosphorylation; for inhibition at 0.25 µM: compound 0.25 uM; for inhibition at 0.5 µM: compound 0.5 uM
Procedure: An inhibitory effect on tau phosphorylation was determined using the ClariCELL™ Kinase Cell-Based Assay service (commercially available from CamaBio USA, Inc.). Human embryonic kidney (HEK 293) cells temporarily expressing human DYRK1A and tau were exposed to the compound, and then lysed to release cell proteins. In this case, the released tau was captured on a plate, and a degree of phosphorylation was quantified by ELISA using a tau phosphorylation-specific antibody.

SMILES | IC50 [1] [nM] | IC50 [2] [nM] | inhibition at 0.5 µM [3] [%] | inhibition at 0.5 µM [4] [%] | IC50 [5] [nM] | IC50 [6] [nM] | inhibition at 1 µM [7] [%] | inhibition at 0.25 µM [7] [%] | inhibition at 0.5 µM [7] [%]
CNc1nc(Nc2ccc(C(=O)N3CCC(N4C[C@@H]5C[C@H]4CO5)CC3)c3c2OCC3)nc2[nH]cc(C(F)(F)F)c12 [Example 230, (4-((1S,4S)-2-oxa-5-azabicyclo[2.2.1]heptan-5-yl)piperidin-1-yl)(7-((4-(methylamino)-5-(tifluoromethyl)-7H-pyrrolo[2,3-d]pyrimidin-2-yl)amino)-2,3-dihydrobenzofuran-4-yl)methanone] | < 100 | < 100 | 34 | 1 | < 100 | < 100 | – | – | –
CNc1nc(Nc2ccc(C(=O)N3CC[C@@H](N4CCOCC4)C3)c3c2OCC3)nc2[nH]cc(C(F)(F)F)c12 [Example 237, (R)-(7-((4-(methylamino)-5-(trifluoromethyl)-7H-pyrrolo[2,3-d]pyrimidin-2-yl)amino)-2,3-dihydrobenzofuran-4-yl)(3-morpholinopyrrolidin-1-yl)methanone] | < 100 | < 100 | 41.1 | 18.9 | < 100 | < 100 | – | – | –
CCCNc1nc(Nc2ccc(C(=O)N3CCC(N4CCOCC4)CC3)c3c2OCC3)nc2[nH]cc(C#N)c12 [Example 349, 2-((4-(4-morpholino-piperidine-1-carbonyl)-2,3-dihydro-benzofuran-7-yl)amino)-4-(propylamino)-7H-pyrrolo[2,3-d]pyrimidine-5-carbonitrile] | < 100 | < 100 | 32.9 | 36.7 | – | – | 53.4 | 21 | 37
COCCNc1nc(Nc2ccc(C(=O)N3CCC(N4CCOCC4)CC3)c3c2OCCO3)nc2[nH]cc(C(F)(F)F)c12 [Example 366, (8-((4-((2-methoxyethyl)amino)-5-(trifluoromethyl)-7H-pyrrolo[2,3-d]pyrimidin-2-yl)amino)-2,3-dihydrobenzo[b] [1,4]dioxin-5-yl) (4-morpholino-piperidin-1-yl)methanone] | < 100 | < 100 | 1.1 | 19.2 | < 100 | < 100 | – | – | –
CNc1nc(Nc2ccc(C(=O)N3C[C@@H]4C[C@H]3CO4)c3c2OCCO3)nc2[nH]cc(C(F)(F)F)c12 [Example 408, ((1S,4S)-2-oxa-5-azabicyclo[2.2.1]heptan-5-yl)(8-((4-(methylamino)-5-(trifluoromethyl)-7H-pyrrolo[2,3-d]pyrimidin-2-yl)amino)-2,3-dihydrobenzo[b] [1,4]dioxin-5-yl)methanone] | < 100 | < 100 | 19.5 | 4.3 | < 100 | – | 48.5 | 20.6 | 40.3
O=C(c1ccc(Nc2nc(N[C@@H]3CCOC3)c3c(C(F)(F)F)c[nH]c3n2)c2c1OCCO2)N1CCN(C2COC2)CC1 [Example 416, (R)-(4-(oxetan-3-yl)piperazin-1-yl)(8-((4-((tetrahydrofuran-3-yl)amino)-5-(trifluoromethyl)-7H-pyrrolo[2,3-d]pyrimidin-2-yl)amino)-2,3-dihydrobenzo[b] [1,4]dioxin-5-yl)methanone] | < 100 | < 100 | 45.6 | 8.1 | – | < 100 | 86.8 | 54.2 | 75.9
O=C(c1ccc(Nc2nc(N[C@H]3CCOC3)c3c(C(F)(F)F)c[nH]c3n2)c2c1OCCO2)N1CCN(C2COC2)CC1 [Example 418, (S)-(4-(oxetan-3-yl)piperazin-1-yl)(8-((4-((tetra-hydrofuran-3-yl)amino)-5-(trifluoromethyl)-7H-pyrrolo[2,3-d]pyrimidin-2-yl)amino)-2,3-dihydrobenzo[b] [1,4]dioxin-5-yl)methanone] | < 100 | < 100 | 35.5 | 8.5 | – | < 100 | 80.2 | 46.2 | 55.4
COCCNc1nc(Nc2ccc(C(=O)N3CCOCC3)c3c2OCC3)nc2[nH]cc(C(F)(F)F)c12 [Example 442, (7-((4-((2-methoxyethyl)amino)-5-(trifluoromethyl)-7H-pyrrolo[2,3-d]pyrimidin-2-yl)amino)-2,3-dihydrobenzo-furan-4-yl) (morpholino) methanone] | < 100 | < 100 | 31.4 | 1.9 | – | – | 80.8 | 45 | 51.5
CC(C)CNc1nc(Nc2ccc(C(=O)N3CCC(N4CCOCC4)CC3)c3c2OCC3)nc2[nH]cc(C(F)(F)F)c12 [Example 448, (7-((4-(iso-butylamino)-5-(trifluoromethyl)-7H-pyrrolo[2,3-d]pyrimidin-2-yl)amino)-2,3-dihydrobenzo-furan-4-yl)(4-morpho-linopiperidin-1-yl)methanone] | 101 to 300 | < 100 | 26.2 | 17.7 | < 100 | < 100 | – | – | –
CC(C)Nc1nc(Nc2ccc(C(=O)N3CCC(N4CCOCC4)CC3)c3c2OCC3)nc2[nH]cc(C(F)(F)F)c12 [Example 450, (7-((4-(isopropylamino)-5-(trifluoromethyl)-7H-pyrrolo[2,3-d]pyrimidin-2-yl)amino)-2,3-dihydrobenzo-furan-4-yl)(4-morpho-linopiperidin-1-yl)methanone] | < 100 | < 100 | 11.4 | 7.5 | – | – | 84.9 | 37.2 | 66.8
CCNc1nc(Nc2ccc(C(=O)N3CC[C@@H](N4CCOCC4)C3)c3c2OCC3)nc2[nH]cc(C(F)(F)F)c12 [Example 476, (R)-(7-((4-(ethylamino)-5-(trifluoromethyl)-7H-pyrrolo[2,3-d]pyrimidin-2-yl)amino)-2,3-dihydrobenzo-furan-4-yl)(3-morpholino-pyrrolidin-1-yl)methanone] | < 100 | < 100 | 47.4 | 24.5 | < 100 | < 100 | – | – | –

— patent publication US20230066011A1, “PYRROLOPYRIMIDINE DERIVATIVE, AND PHARMACEUTICAL COMPOSITION FOR PREVENTING OR TREATING PROTEIN KINASE-RELATED DISEASE COMPRISING SAME AS ACTIVE INGREDIENT” (VORONOI CO., LTD., priority 2019, published 2023)
